This is an account of results in patent US20180008587A1, “THIOHYDANTOIN ANDROGEN RECEPTOR ANTAGONISTS FOR THE TREATMENT OF CANCER” (Jaressen Pharmaceutica NV, priority 2016, published 2018).

Residue numbers refer to the chain shown, from its start. Several values for one entry are separate records, joined by “and”; a condition that tells them apart may be missing. Equal values may be shown once. Read-outs that look alike come from different tables or passages of the source.

The target of experiment [1] is T1, F876L mutant Androgen Receptor (AR-F876L) (Homo sapiens, UniProt P10275, F877L).
T1 construct: expressed in transfected cells; host or cells: LNCaP (LNCaP F876L)
T1 sequence (P10275 1-920 F877L): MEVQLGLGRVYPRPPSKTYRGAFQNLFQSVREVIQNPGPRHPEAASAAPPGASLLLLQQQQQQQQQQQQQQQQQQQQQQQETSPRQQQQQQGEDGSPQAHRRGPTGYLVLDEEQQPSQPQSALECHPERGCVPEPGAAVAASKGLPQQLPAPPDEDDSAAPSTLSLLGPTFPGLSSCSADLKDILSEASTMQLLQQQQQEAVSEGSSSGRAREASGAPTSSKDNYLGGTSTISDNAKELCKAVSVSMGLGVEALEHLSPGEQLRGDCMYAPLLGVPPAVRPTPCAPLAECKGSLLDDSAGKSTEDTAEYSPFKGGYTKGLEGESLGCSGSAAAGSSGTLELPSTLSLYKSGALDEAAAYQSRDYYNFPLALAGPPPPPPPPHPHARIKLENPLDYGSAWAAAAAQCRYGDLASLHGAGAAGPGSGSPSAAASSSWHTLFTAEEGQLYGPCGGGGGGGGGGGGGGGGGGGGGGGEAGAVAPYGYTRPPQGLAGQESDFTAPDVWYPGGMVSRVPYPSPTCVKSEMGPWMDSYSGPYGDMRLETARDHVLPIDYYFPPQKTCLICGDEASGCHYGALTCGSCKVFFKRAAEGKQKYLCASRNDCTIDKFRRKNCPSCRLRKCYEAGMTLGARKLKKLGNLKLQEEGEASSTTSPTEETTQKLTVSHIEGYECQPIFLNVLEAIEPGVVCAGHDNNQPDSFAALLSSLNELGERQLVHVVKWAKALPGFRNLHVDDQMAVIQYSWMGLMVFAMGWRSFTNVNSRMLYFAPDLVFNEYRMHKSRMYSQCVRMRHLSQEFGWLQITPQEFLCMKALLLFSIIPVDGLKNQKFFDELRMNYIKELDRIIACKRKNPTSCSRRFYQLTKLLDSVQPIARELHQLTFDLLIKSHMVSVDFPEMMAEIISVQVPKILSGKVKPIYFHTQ
The experiment is described as follows: LNCaP-AR-F876L AG reporter assay (ARE firefly luciferase, agonist mode). Type of experiment: cell-based. The note with it: for Emax: read-out: LNCaP-AR-F876L AG MAX % Stim. Put shortly: (§1)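 Cells: stable LNCaP pools, AR-wt or AR-F876L, in charcoal-stripped serum. Agonist challenge for antagonist mode was 400 pM (WT) and 600 pM (F876L). Luminescence was measured after 20-24 h incubation.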
A general note: Reporter assays use an easily measured gene product as a stand-in for the process of interest.

Experiment [2] has as its system androgen dependent signaling. Kind of experiment: Hershberger assay. Type of experiment: in vivo, rat. As for the experimental part:
The effect of AR antagonists on androgen dependent signaling in vivo was assessed using the Hershberger assay. In this assay, peripubertal castrated male Sprague-Dawley rats were administered AR antagonists described herein in the presence of testosterone (0.4 mg/kg testosterone propionate) and the weights of androgen dependent organs measured. Dosing was continued for 10 days and measurements taken 24 h after the last dose. The extent of antagonism of AR and consequent inhibition of organ growth was evaluated by comparison to the castration control. Compounds of Formula (I) were dosed orally QD and an endpoint assessment made by change in weight of 5 androgen sensitive organs (ASO): Paired Cowper's Glands (CG), Seminal Vesicles with Fluids and Coagulating Glands (SVCG), Glans Penis (GP), Ventral Prostate (VP) and Levator Ani-Bulbocavernosus Complex (LABC)). According to assay guidelines, statistically significant suppression of ASO is required in 2 of 5 organs for a compound to be classified as an anti-androgen (analysis was performed by t-test/Mann-Whitney).
Compounds defined herein were administered at the indicated dose (mg/kg) and flutamide (FT), positive control, at 3 mg/kg. All compounds were co-administered with testosterone propionate (TP, 0.4 mg/kg) which was also administered alone, untreated control, (castrated only rats served as the control for complete androgen blockade). A statistically significant change in ASO achieved in at least 2 of 5 organs was indicative of an active compound.

For experiment [3], the target named is T1, F876L mutant Androgen Receptor (AR-F876L). The experiment is described as follows: LNCaP-AR-F876L ANT reporter assay (ARE firefly luciferase, antagonist mode). It is filed as cell-based. The note with it: for Emax: read-out: LNCaP-AR-F876L ANT MAX % Inh; for IC50: read-out: LNCaP-AR-F876L ANT pIC50 (converted). Put shortly: (§2)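 Read-out is luciferase luminescence taken 1 h after Steady-Glo addition, following 20-24 h compound exposure at 37 °C in LNCaP pools stably carrying wild-type or F876L AR. Cells were grown in charcoal-stripped serum. Antagonist wells received agonist at 400 pM (WT) or 600 pM (F876L).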

For experiment [4], the target named is T2, wild-type Androgen Receptor (AR-wt) (Homo sapiens, UniProt P10275).
T2 construct: expressed in transfected cells; host or cells: LNCaP (LNCaP AR (cs))
T2 sequence (P10275 1-920): T1 sequence (P10275 1-920 F877L) with L877F
Kind of experiment: LNCaP-AR-wt AG reporter assay (ARE firefly luciferase, agonist mode). It is filed as cell-based. The following applies: for Emax: read-out: LNCaP-AR-wt AG MAX % Stim. Put shortly: as §1

Experiment [5] concerns the target T2, wild-type Androgen Receptor (AR-wt). The experiment is described as follows: LNCaP-AR-wt ANT reporter assay (ARE firefly luciferase, antagonist mode). Type of experiment: cell-based. The note with it: for IC50: antagonist mode, 400 pM R-1881 challenge, −Log10(IC50 [Molar]), read-out: LNCaP-AR-wt ANT pIC50 (converted); for Emax: read-out: LNCaP-AR-wt ANT MAX % Inh. In a few lines:
as §2

A further experiment has as its target T3, T877A AR mutant (Homo sapiens, UniProt P10275, T878A).
T3 sequence (P10275 1-920 T878A): T1 sequence (P10275 1-920 F877L) with L877F, T878A
The following applies: cited from earlier work.

Another experiment addresses T4, F876L-VP16 (Homo sapiens, UniProt P10275, F877L).
T4 construct: VP16 (fusion partner); expressed in transfected cells; host or cells: HepG2
T4 sequence (P10275 1-920 F877L): T1 sequence (P10275 1-920 F877L)
The experiment is described as follows: AR-VP16 DNA binding assay, HepG2. It is filed as cell-based. The note with it: HepG2, antagonist mode, 1 nM R1881, 48 hours. The protocol:
(§3) HepG2 cells were maintained in EMEM supplemented with 10% FBS. One day before transfection, the media was changed to EMEM with 10% CSS. […] Cells were then trypsinized, counted and resuspended at 500,000 cells/mL. For agonist mode, the compounds were serially diluted and 50 μL of the compound was added per well. 50 μL of the cells were added to each well and incubated for 48 hours. For antagonist mode, a final concentration of 90 pM (VP16 AR) or 1 nM (VP16 F876L) R1881 was added to the plate and incubated for 48 hours. The plates were then assayed using SteadyGlo and read on the Envision. Percent Stimulation and Inhibition were determined and analyzed using GraphPad Prism.

The target in another experiment is T5, AR-VP16 (Homo sapiens, UniProt P10275).
T5 sequence (P10275 560-920 limits assumed): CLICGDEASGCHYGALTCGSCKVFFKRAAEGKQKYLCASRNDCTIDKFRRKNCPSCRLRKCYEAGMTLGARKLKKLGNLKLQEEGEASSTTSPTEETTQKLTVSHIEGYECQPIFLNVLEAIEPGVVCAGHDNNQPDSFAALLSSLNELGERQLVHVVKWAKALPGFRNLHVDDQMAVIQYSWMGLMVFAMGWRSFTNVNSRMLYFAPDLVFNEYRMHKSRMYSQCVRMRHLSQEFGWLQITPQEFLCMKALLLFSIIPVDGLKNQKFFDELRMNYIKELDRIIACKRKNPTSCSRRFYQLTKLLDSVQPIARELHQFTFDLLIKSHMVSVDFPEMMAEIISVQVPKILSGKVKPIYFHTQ
Kind of experiment: AR-VP16 DNA binding assay, HepG2. It is filed as cell-based. The following applies: HepG2, antagonist mode, 90 pM R1881, 48 hours; read-out: IC50 VP16 WT. The protocol: as §3

Where [6] appears, read: 3 mg/kg orally QD 10 days with testosterone propionate 0.4 mg/kg, castrated rats, mean ± SD (n=6).
[7] abbreviates: maximum % stimulation (agonist response) over tested concentration range.
Where [8] appears, read: maximum % inhibition of R1881 control response over tested concentration range.

For the compound `CN1CCN(CCCc2ccc(N3C(=S)N(c4cnc(C#N)c(C(F)(F)F)c4)C(=O)C34CCC4)cc2)CC1` [Cpd 43, 5-[8-[4-[3-(4-methylpiperazin-1-yl)propyl]phenyl]-5-oxo-7-thioxo-6,8-diazaspiro[3.4]octan-6-yl]-3-(trifluoromethyl)pyridine-2-carbonitrile], the EC50 in experiment [1] and in experiment [4] was above 15100 nM in each case. Also, the Emax in experiment [1] is 0.4%; in experiment [3], 98.9%; in experiment [4] it was 0.7%; in experiment [5] it was 97.3%. The “reduction in ASO versus TP control” value in experiment [2] (all 5 organs, p≦0.05) is recorded as “significant reduction in ASO”. Further, the IC50 in experiment [3] was 245 nM; in experiment [5] it was 501 nM.
As for `CC(C)(O)C(=O)Nc1ccc([N+](=O)[O-])c(C(F)(F)F)c1` [hydroxyflutamide], the “activity in T877A AR mutant” value at T877A AR mutant was “act as AR agonists”.
As to `CC(C)C(=O)Nc1ccc([N+](=O)[O-])c(C(F)(F)F)c1` [Flutamide, flutamide, reference compound], in experiment [2] (setting [6]), the “ASO Organ Growth (% of TP control) SVCG” value is 22.5 ± 22.9 % of TP control and 16.6 ± 16.3 % of TP control; the “ASO Organ Growth (% of TP control) VP” value is 31.1 ± 29.2 % of TP control and 24.4 ± 35.5 % of TP control.
For `Cc1cc(N2C(=O)C3(CCC3)N(c3ccc(OC4CCN(CCO)CC4)cc3)C2=S)cnc1C#N` [Cpd 60, 5-[8-[4-[[1-(2-hydroxyethyl)-4-piperidyl]oxy]phenyl]-5-oxo-7-thioxo-6,8-diazaspiro[3.4]octan-6-yl]-3-methyl-pyridine-2-carbonitrile], the IC50 is 746 nM at F876L-VP16, 2050 nM on AR-VP16, 525 nM in experiment [3] and 933 nM in experiment [5]. The EC50 in experiment [1] (agonist mode, −Log10(EC50 [Molar]), read-out: LNCaP-AR-F876L AG pEC50 (converted)) was above 15100 nM; in experiment [4] (agonist mode, −Log10(EC50 [Molar]), read-out: LNCaP-AR-wt AG pEC50 (converted)), above 15100 nM. In addition, the Emax in experiment [1] (setting [7]) was determined as 0.7%; in experiment [3] (setting [8]), 99.3%; in experiment [4] (setting [7]), 1.1%; in experiment [5] (setting [8]) it was 98.7%.
